From patent US7709516B2, “Helix 12 directed non-steroidal antiandrogens” (Endorecherche, Inc., priority 2005, dated 2010)
Read-outs that look alike come from different tables or passages of the source.

Key:
[1] = test system: rat prostate, seminal vesicle, levator ani muscle; assay: Systemic antiandrogenic activity in orchidectomized immature male rats with DHT implant; type: in vivo; conditions: Rattus norvegicus, 168 h, rat +DHT, 0.5 mg/animal daily 7 days
Human Androgen Receptor = biological target: T1, Human Androgen Receptor (Homo sapiens, UniProt P10275); assay: Androgen receptor binding assay ([3H]R1881, HAP) in cytosol of HEK-293 cells transfected with hAR; conditions: relative to R1881 = 100, transfected cells
T1 sequence (P10275 1-920): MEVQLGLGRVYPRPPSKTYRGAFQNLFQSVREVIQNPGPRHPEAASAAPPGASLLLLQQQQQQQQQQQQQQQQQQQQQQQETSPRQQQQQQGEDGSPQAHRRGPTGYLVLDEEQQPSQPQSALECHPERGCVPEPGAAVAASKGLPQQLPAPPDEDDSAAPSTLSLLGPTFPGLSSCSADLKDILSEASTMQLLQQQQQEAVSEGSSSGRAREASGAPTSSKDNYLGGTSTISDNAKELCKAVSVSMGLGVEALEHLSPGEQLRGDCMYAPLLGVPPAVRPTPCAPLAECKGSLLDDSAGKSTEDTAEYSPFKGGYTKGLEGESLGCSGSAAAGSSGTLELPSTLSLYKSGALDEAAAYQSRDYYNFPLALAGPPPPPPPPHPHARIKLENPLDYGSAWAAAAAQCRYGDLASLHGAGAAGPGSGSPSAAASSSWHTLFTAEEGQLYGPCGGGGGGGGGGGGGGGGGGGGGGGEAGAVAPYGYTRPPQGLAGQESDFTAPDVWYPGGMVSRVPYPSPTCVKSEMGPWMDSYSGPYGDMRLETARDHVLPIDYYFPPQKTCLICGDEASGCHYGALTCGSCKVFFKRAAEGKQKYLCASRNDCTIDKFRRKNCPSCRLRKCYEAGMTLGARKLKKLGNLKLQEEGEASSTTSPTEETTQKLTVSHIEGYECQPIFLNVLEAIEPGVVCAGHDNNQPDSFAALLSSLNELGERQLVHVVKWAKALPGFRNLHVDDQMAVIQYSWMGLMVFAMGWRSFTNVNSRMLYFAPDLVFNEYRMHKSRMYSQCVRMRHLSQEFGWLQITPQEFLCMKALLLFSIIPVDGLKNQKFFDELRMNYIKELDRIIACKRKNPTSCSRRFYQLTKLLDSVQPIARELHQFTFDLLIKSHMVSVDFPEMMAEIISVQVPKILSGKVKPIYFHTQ

[2] = test system: Shionogi mouse mammary carcinoma cells; assay: Androgenic/antiandrogenic activity: inhibition of DHT-stimulated Shionogi cell number; type: cell-based; conditions: Mus musculus, DHT-stimulated Shionogi cell number
[3] = read-out: Lev Ani % inhibition, Table 1, s.c. or p.o. (route not marked), levator ani
[4] = read-out: Prostate % inhibition, Table 1, s.c. or p.o. (route not marked in cell)
[5] = read-out: SV % inhibition, Table 1, s.c. or p.o. (route not marked), seminal vesicle
[6] = read-out: Shionogi Antiandrogenic Activity IC50, Table 1
[7] = read-out: Lev Ani % inhibition, Table 2, s.c. or p.o. (route not marked), levator ani
[8] = read-out: Prostate % inhibition, Table 2, s.c. or p.o. (route not marked)
[9] = read-out: SV % inhibition, Table 2, s.c. or p.o. (route not marked), seminal vesicle
[10] = read-out: Shionogi Antiandrogenic Activity IC50, Table 2
[11] = Prostate cell, po, read-out: Lev Ani % inhibition, Table 1, p.o, levator ani
[12] = Prostate cell, po, read-out: SV % inhibition, Table 1, p.o, seminal vesicle
[13] = po, read-out: Prostate % inhibition, Table 1, p.o

SMILES | inhibition in vivo at 0.5 mg [1, 3] [%] | inhibition in vivo at 0.5 mg [1, 4] [%] | inhibition in vivo at 0.5 mg [1, 5] [%] | Human Androgen Receptor Binding (%) RBA R1881 = 100 (Human Androgen Receptor; Table 1) [%] | IC50 [2, 6] [nM] | inhibition in vivo at 0.5 mg [1, 7] [%] | inhibition in vivo at 0.5 mg [1, 8] [%] | inhibition in vivo at 0.5 mg [1, 9] [%] | Human Androgen Receptor Binding (%) RBA R1881 = 100 (Human Androgen Receptor; Table 2) [%] | IC50 [2, 10] [nM] | inhibition in vivo at 0.5 mg [1, 11] [%] | inhibition in vivo at 0.5 mg [1, 12] [%] | inhibition in vivo at 0.5 mg [1, 13] [%]
CC(C)NCc1ccc(OCCCN2C(=S)N(c3ccc(C#N)c(C(F)(F)F)c3)C(=O)C2(C)C)c(Cl)c1 [EM-7919] | 9 | 28 | 53 | 29.0 | 6.7 | – | – | – | – | – | – | – | –
CC(C)NCc1ccc(OCCCN2C(=S)N(c3ccc(C#N)c(C(F)(F)F)c3)C(=O)C2(C)C)cn1 [EM-7926] | 14 | 44 | 72 | 1.5 | 7.9 | – | – | – | – | – | – | – | –
CN(C)Cc1ccc(OCCCN2C(=S)N(c3ccc(C#N)c(C(F)(F)F)c3)C(=O)C2(C)C)cn1 [EM-7927] | 61 | 32 | 55 | 2.4 | 6.9 | – | – | – | – | – | – | – | –
COc1cc(CNC(C)C)ccc1OCCCN1C(=S)N(c2ccc(C#N)c(C(F)(F)F)c2)C(=O)C1(C)C [EM-7930] | 41 | 47 | 71 | 0.5 | 9.5 | – | – | – | – | – | – | – | –
CC(C)NS(=O)(=O)c1ccc(OCCCN2C(=S)N(c3ccc(C#N)c(C(F)(F)F)c3)C(=O)C2(C)C)cc1 [EM-7957] | 75 | 44 | 72 | 5.9 | 17.6 | – | – | – | – | – | – | – | –
CCC(c1ccc(OCCC2(O)CCN(c3ccc(C#N)c(C(F)(F)F)c3)CC2)c(C)c1)N1CCCC1 (stereo not drawn) [EM-8003] | – | – | – | – | – | 44 | 11 | 35 | 6.4 | 22.3 | – | – | –
CCC(CC)NC(CC)c1ccc(OCCC2(O)CCN(c3ccc(C#N)c(C(F)(F)F)c3)CC2)c(C)c1 (stereo not drawn) [EM-8006] | – | – | – | – | – | 40 | 14 | 32 | 8.1 | 30.8 | – | – | –
CC1(C)C(=O)N(c2ccc(C#N)c(C(F)(F)F)c2)C(=S)N1CCCOc1ccc(S(C)(=O)=O)cc1 [EM-8056] | – | – | – | 6.7 | 12 | – | – | – | – | – | 80 | 91 | 49
N#Cc1ccc(N2CCC(O)(CCOc3ccc(-c4cccnc4)c(CN4CCCC4)c3)CC2)cc1C(F)(F)F [EM-8058] | – | – | – | – | – | 6 | 0 | 2 | 1.5 | 56.5 | – | – | –
N#Cc1ccc(N2CCC(O)(CCOc3cccc(CN4CCCC4)c3)CC2)cc1C(F)(F)F [EM-8059] | – | – | – | – | – | 0 | 1 | 21 | 1.0 | 68.9 | – | – | –
CC1(C)C(=O)N(c2ccc(C#N)c(C(F)(F)F)c2)C(=S)N1CCCOc1ccc(-n2ccnc2)cc1 [EM-8062] | – | – | – | 15.6 | 6.6 | – | – | – | – | – | 63 | 79 | 37
CCCC(c1ccc(OCCC2(O)CCN(c3ccc(C#N)c(C(F)(F)F)c3)CC2)cc1)N1CCCC1 (stereo not drawn) [EM-8096] | – | – | – | – | – | 50 | 8 | 55 | 6.9 | 19.6 | – | – | –
CC(=O)Nc1ccc(OCCCN2C(=S)N(c3ccc(C#N)c(C(F)(F)F)c3)C(=O)C2(C)C)cc1 [EM-8101] | – | – | – | 12.1 | 18.2 | – | – | – | – | – | 43 | 41 | 8
CC1(C)C(=O)N(c2ccc(C#N)c(C(F)(F)F)c2)C(=S)N1CCCOc1ccc(S(=O)(=O)N2CCCC2)cc1 [EM-8103] | – | – | – | 29.3 | 41.5 | – | – | – | – | – | 16 | 37 | 18
N#Cc1ccc(N2CCC(O)(CCOc3ccc(S(=O)(=O)N4CCCC4)cc3)CC2)cc1C(F)(F)F [EM-8130] | – | – | – | – | – | 8 | 15 | 20 | 4.5 | 28.3 | – | – | –
CC(C)S(=O)(=O)c1ccc(OCCCN2C(=S)N(c3ccc(C#N)c(C(F)(F)F)c3)C(=O)C2(C)C)cc1 [EM-8131] | – | – | – | 9.3 | 9.1 | – | – | – | – | – | 47 | 84 | 47
CC(C)Sc1ccc(OCCCN2C(=S)N(c3ccc(C#N)c(C(F)(F)F)c3)C(=O)C2(C)C)cc1 [EM-8132] | – | – | – | 1.0 | 24 | – | – | – | – | – | 67 | 86 | 47
CC1(C)C(=O)N(c2ccc(C#N)c(C(F)(F)F)c2)C(=S)N1CCCOc1ccc2c(c1)OCC2=O [EM-8154] | – | – | – | 72.4 | 17.1 | – | – | – | – | – | 41 | 42 | 11
CC1(C)C(=O)N(c2ccc(C#N)c(C(F)(F)F)c2)C(=S)N1CCCOc1ccc(C(N)=O)cc1 [EM-8156] | – | – | – | 17.5 | 7.9 | – | – | – | – | – | 47 | 65 | 32
COC1(CCOc2ccc(CN3CCCC3)cc2C)CCN(c2ccc(C#N)c(C(F)(F)F)c2)CC1 [EM-8157] | – | – | – | – | – | 28 | 25 | 56 | <1.0 | 54.3 | – | – | –
CC1(C)C(=O)N(c2ccc(C#N)c(C(F)(F)F)c2)C(=S)N1CCCOc1ccc2oc(=O)ccc2c1 [EM-8158] | – | – | – | 88.8 | 3.5 | – | – | – | – | – | 32 | 70 | 38
